In general, IC50 refers to the midpoint of a concentration-inhibition curve. Read a low IC50 as greater potency in that assay.

Experiment [1] concerns P. falciparum K1 (CQ-resistant). Description: HRP2-based ELISA growth inhibition, K1 strain. Type of experiment: cell-based. The note with it: Plasmodium falciparum, unmarked values: HRP II ELISA, 72 h. The text has this:
(§1) Highly sensitive HRP2-based ELISA and [^3H]-hypoxanthine incorporation assay were used as markers for inhibition of parasite growth as previously described (12, 14). A solvent control and a chloroquine (CQ) control were included in the HRP2-based ELISA. CQ, lumefantrine and artesunate were included as controls in the [^3H]-hypoxanthine assay series.
(§2) The assay protocol of the HRP2-based ELISA is described in more detail in the following paragraphs.
(§3) The P. falciparum clones were maintained in continuous culture as described previously (10). Briefly, 3D7 (CQ-sensitive), NF54, and K1 (CQ-resistant) P. falciparum clones were obtained from MR4/American Type Culture Collection, Manassas, Va., USA under the accession numbers MR4-102 (3D7), MRA-1000 (NF54), and MR4-159 (K1). P. falciparum cultures were maintained in 25 cm^2 flasks. Parasites were cultured in RPMI 1640 (Sigma Aldrich, Austria) medium containing 10% human serum at a hematocrit of 5% (blood group 0 negative) at 37° C. under an atmosphere of 5% CO2, 5% O2 and 90% N2. The medium was changed every 24 to 48 hours. The culture was diluted and fresh erythrocytes were added whenever the parasite density reached >1%.
(§4) Stock solutions of compounds of formula I were prepared in DMSO (10 mg/mL). Stock concentrations of chloroquine and lumefantrine always remained 1 mg/mL and were prepared in 70% ethanol. Coating of culture plates with compounds of formula I and controls: 96 wells culture plates were coated as described previously (11). Working standards were prepared by diluting the stock solutions in RPMI1640 to obtain the desired final concentrations. Serial three-fold dilutions (seven concentrations and one drug-free control well) of the drugs (25 μL/well) were dispensed in duplicate into standard 96-well micro culture plates. Chloroquine was included as a reference drug in all experiments.
(§5) After reaching a parasitemia of 5% or higher, 5 mL of cell medium mixture were centrifuged at 700 g for 5 minutes at room temperature (RT). Packed red cells were resuspended in 3 mL of 5% D-sorbitol (Sigma Aldrich, Austria) in water at RT and immediately centrifuged again at 700 g for 5 minutes at RT followed by three washes with 3 mL of RPMI1640 medium. […].
(§6) Samples were diluted with RPMI1640 medium containing 0.5% Albumax II (GIBCO, Invitrogen, Vienna, Austria) by adding uninfected red blood cells to 1.5% hematocrit and 0.05% parasitemia. 150 μL of this cell medium mixture was then added to each well of 96-well plates precoated with test compounds and incubated at 37° C. for 72 hours in a gas mixture containing 5% CO2, 5% O2, and 90% N2. After 72 hours the plates were frozen at −20° C. until the histidine rich protein II assay (23).
(§7) A highly sensitive HRPII ELISA was used based on two commercially available monoclonal antibodies (Immunology Consultants Laboratory, Inc., Newberg, Oreg.) directed against P. falciparum-specific HRPII: MPFM-55A, an immunoglobulin M antibody served as the primary capture antibody and HRP-conjugated MPFG-55P (Immunology Consultants Laboratory, Inc., Newberg, Oreg.) as secondary antibody. The ELISA was employed to assess growth inhibition as a measure of drug susceptibility as previously described. Optical density was measured at 450 nm using a standard ELISA plate reader (12-13).
(§8) Hyperbolic concentration response curves were fitted to the data points by nonlinear least squares using the solver add-in of the Excel software.
(§9) Indicated in TABLE 2 are the IC50 [μM] values for growth inhibition of the 3D7 (NF54) and K1 strains of P. falciparum for the compounds of formula I indicated with their formula numbers in TABLE 2. Unmarked IC50 values for K1 and 3D7 strains of P. falciparum have been determined by HRP II enzyme linked immunosorbent assay (ELISA) as described above. […]
For orientation: An ELISA detects its analyte on a solid surface through an enzyme-linked reagent.

Experiment [2] has as its system P. falciparum 3D7 (CQ-sensitive). Nature of the experiment: HRP2-based ELISA growth inhibition, 3D7 strain. Type of experiment: cell-based. To be noted: Plasmodium falciparum, unmarked values: HRP II ELISA, 72 h.
Excerpt: as §1, §2, §3, §4, §5, §6, §7, §8, §9

Consider `COc1ccc(CNC(=O)c2ccccc2OCC(O)CN2CCN(c3cccc(C)c3C)CC2)cc1` (centres unmarked) [Compound I-51, 2-{3-[4-(2,3-Dimethyl-phenyl)-piperazin-1-yl]-2-hydroxy-propoxy}-N-(4-methoxy-benzyl)-benzamide], for which the IC50 in experiment [1] was found to be 134 nM; in experiment [2] it was 2020 nM.

For `CN(CC(O)COc1ccccc1C(=O)NCc1ccc(C(F)(F)F)cc1)C1C2CC3CC(C2)CC1C3` (centres unmarked) [Compound I-16, 2-[3-(Adamantan-2-yl-methyl-amino)-2-hydroxy-propoxy]-N-(4-trifluoromethyl-benzyl)-benzamide], the IC50 in experiment [1] was found to be 54 nM; in experiment [2], 131 nM.

`CN(CC(O)COc1ccccc1C(=O)NCc1ccccc1)C1C2CC3CC(C2)CC1C3` (centres unmarked) [Compound I-13, 2-[3-(Adamantan-2-yl-methyl-amino)-2-hydroxy-propoxy]-N-benzyl-benzamide]: the IC50 was determined as 168 nM in experiment [1] and 457 nM in experiment [2].

Regarding `C#CCOc1ccc(OCC(O)CNCc2ccc(C3(C(F)(F)F)N=N3)cc2)c(C(=O)NCCC(C)C)c1` (centres unmarked) [Compound I-44, 2-{2-Hydroxy-3-[4-(3-trifluoromethyl-3H-diazirin-3-yl)-benzylamino]-propoxy}-N-(3-methyl-butyl)-5-prop-2-ynyloxy-benzamide], the IC50 is 466 nM in experiment [1] and 1310 nM in experiment [2].

As for `O=C(NCc1ccccc1)c1ccccc1OCC(O)CNCCC12CC3CC(CC(C3)C1)C2` (centres unmarked) [Compound I-62, 2-[3-(2-Adamantan-1-yl-ethylamino)-2-hydroxy-propoxy]-N-benzyl-benzamide], the IC50 in experiment [1] came to 30 nM; in experiment [2], 704 nM.

With `CN(CC(O)COc1ccccc1C(=O)NCc1ccc(C(C)(C)C)cc1)C1C2CC3CC(C2)CC1C3` (centres unmarked) [Compound I-64, 2-[3-(Adamantan-2-yl-methyl-amino)-2-hydroxy-propoxy]-N-(4-tert-butyl-benzyl)-benzamide], the IC50 in experiment [1] came to 397 nM; in experiment [2], 1480 nM.

`O=C(NCc1ccccc1)c1ccccc1OCC(O)CNC12CC3CC(CC(C3)C1)C2` (centres unmarked) [Compound I-1, 2-[3-(Adamantan-1-ylamino)-2-hydroxy-propoxy]-N-benzyl-benzamide]: the IC50 worked out at 507 nM in experiment [1] and 2460 nM in experiment [2].

Turning to `CCCCCN(CC(O)COc1ccccc1C(=O)NCc1ccccc1)C1C2CC3CC(C2)CC1C3` (centres unmarked) [Compound I-19, 2-[3-(Adamantan-2-yl-pentyl-amino)-2-hydroxy-propoxy]-N-benzyl-benzamide], the IC50 in experiment [1] stood at 40 nM; in experiment [2], 153 nM.

For the compound `O=C(NCc1ccccc1)c1ccccc1OCC(O)CNCCCc1ccccc1` (centres unmarked) [Compound I-50, N-Benzyl-2-[2-hydroxy-3-(3-phenyl-propylamino)-propoxy]-benzamide], the results for the 50% inhibitory concentration (IC50) in experiment [1] and in experiment [2] were 403 nM and 1750 nM, respectively.

For `CCCN(CC(O)COc1ccccc1C(=O)NCc1ccccc1)C1C2CC3CC(C2)CC1C3` (centres unmarked) [Compound I-17, 2-[3-(Adamantan-2-yl-propyl-amino)-2-hydroxy-propoxy]-N-benzyl-benzamide], the values for the half-inhibitory concentration (IC50) in experiment [1] and in experiment [2] were 209 nM and 1190 nM, respectively.

Turning to `O=C(NCCCc1ccccc1)c1ccccc1OCC(O)CNC1C2CC3CC(C2)CC1C3` (centres unmarked) [Compound I-11, 2-[3-(Adamantan-2-ylamino)-2-hydroxy-propoxy]-N-(3-phenyl-propyl)-benzamide], the IC50 turned out to be 45 nM in experiment [1] and 186 nM in experiment [2].

As to `O=C(NCc1ccccc1)c1ccccc1OCC(O)CNC1C2CC3CC(C2)CC1C3` (centres unmarked) [Compound I-6, 2-[3-(Adamantan-2-ylamino)-2-hydroxy-propoxy]-N-benzyl-benzamide], the IC50 in experiment [1] turned out to be 29 nM; in experiment [2], 121 nM.

In the case of `COc1ccccc1CN(CC(O)COc1ccccc1C(=O)NCc1ccccc1)C1C2CC3CC(C2)CC1C3` (centres unmarked) [Compound I-21, 2-{3-[Adamantan-2-yl-(2-methoxy-benzyl)-amino]-2-hydroxy-propoxy}-N-benzyl-benzamide], the concentration for half-maximal inhibition (IC50) in experiment [1] came out at 613 nM; in experiment [2], 4120 nM.

The record behind these values is patent US20150141437A1, “AMIDOPHENOXYPROPANOLAMINES” (MEDIZINISCHE UNIVERSITÄT WIEN, priority 2012, published 2015).
